Assay results reported in patent US20150368655A1, “TRANSFORMED EUGLENA AND PROCESS FOR PRODUCING SAME” (OSAKA PREFECTURE UNIVERSITY PUBLIC CORPORATION, priority 2012, published 2015).
Values after ≈ are worked out from the molar mass of the structure shown.

Tested on: Euglena wild strain
Test: Growth inhibition / drug sensitivity of the Euglena wild strain in KH medium
Assay type: cell-based, Euglena gracilis
Experimental: Euglena gracilis Klebs Z strain (hereafter, “Euglena wild strain”), which has chloroplasts, was used.
Koren-Hutner medium (KH medium) was used as a heterotrophic medium (Table 1). 150 ml of the KH medium adjusted to a pH of 6.8 was placed in a 500 ml Sakaguchi flask and sterilized by autoclaving at 121° C. for 15 minutes. 1 ml of Euglena that reached the stationary phase by culturing for about 4 to 7 days (10 to 15×10^6 cells/ml) was inoculated into the medium, followed by culture with shaking at 27° C. under continuous light conditions for 24 hours. A plate medium was prepared by adding 1.0%(w/v) of agar powder.
The minimum inhibitory concentration of zeocin for the Euglena wild strain in a medium at a pH of 6.8 was examined. […] The growth inhibition was observed even when the number of cells at the start of culture was relatively large (2.0×10^6 cells/ml in a liquid medium, 2.0×10^6 cells/plate in a plate medium).
The influence of cefotaxime, which is used to remove Agrobacterium, on the growth of Euglena in transformation by the Agrobacterium method was examined. The results reveal that cefotaxime had no influence on the growth of the Euglena wild strain to at least 500 μg/ml (FIG. 8). Thus, a selective medium containing cefotaxime was used.

CN[C@@H]1[C@@H](O)[C@@H](O[C@@H]2[C@@H](O)[C@H](O[C@H]3O[C@H]([C@@H](C)O)[C@@H](O)[C@H](O)[C@H]3N)[C@@H](N)C[C@H]2N)OC[C@]1(C)O [G418]
Growth of the Euglena wild strain (as the concentrations increased (FIGS. 9 and 10)): inhibited the growth

CO/N=C(\C(=O)N[C@@H]1C(=O)N2C(C(=O)O)=C(COC(C)=O)CS[C@H]12)c1csc(N)n1 [cefotaxime]
Influence on the growth of the Euglena wild strain (to at least 500 μg/ml (FIG. 8)): no influence

Cc1c(N)nc([C@H](CC(N)=O)NC[C@H](N)C(N)=O)nc1C(=O)N[C@H](C(=O)N[C@H](C)[C@@H](O)[C@H](C)C(=O)N[C@H](C(=O)NCCC1=N[C@@H](c2nc(C(=O)NCCCCN=C(N)N)cs2)CS1)[C@@H](C)O)[C@@H](O[C@@H]1O[C@@H](CO)[C@@H](O)[C@H](O)[C@@H]1O[C@H]1O[C@H](CO)[C@@H](O)[C@H](OC(N)=O)[C@@H]1O)c1cnc[nH]1 [zeocin]
Minimum inhibitory concentration (growth completely inhibited) (liquid medium, pH of 6.8): 50 µg/mL (≈ 35 µM)
Growth of the Euglena wild strain (medium containing 100 μg/ml of zeocin, liquid medium (FIG. 5) or plate medium (FIG. 6)): almost completely inhibited
Minimum inhibitory concentration (growth nearly inhibited) (plate medium, pH of 6.8): 25 µg/mL (≈ 17.5 µM)
